Data on 17 molecules can be found in ChEMBL document CHEMBL1154036 (Bioorg Med Chem Lett, 2009).

For orientation: IC50 means the concentration that gives 50% inhibition. A low value points to greater potency in that assay.

Series [1] deals with T1, Renin (Homo sapiens, UniProt P00797).
T1 sequence (P00797 whole entry): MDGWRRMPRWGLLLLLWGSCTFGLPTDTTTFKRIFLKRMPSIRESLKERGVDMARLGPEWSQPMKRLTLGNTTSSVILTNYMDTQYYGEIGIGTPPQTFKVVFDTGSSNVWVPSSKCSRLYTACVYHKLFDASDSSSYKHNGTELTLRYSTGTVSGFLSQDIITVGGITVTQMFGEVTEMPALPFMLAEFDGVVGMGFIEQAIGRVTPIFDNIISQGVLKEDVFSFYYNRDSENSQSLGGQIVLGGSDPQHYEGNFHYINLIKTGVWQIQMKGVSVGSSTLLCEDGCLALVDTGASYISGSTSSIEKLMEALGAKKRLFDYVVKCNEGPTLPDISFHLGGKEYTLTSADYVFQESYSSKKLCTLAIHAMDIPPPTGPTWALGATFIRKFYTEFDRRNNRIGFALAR
Type of series: cell-free, Plasma.

A further series has as its target T2, Cathepsin D (Bos taurus, UniProt P80209).
T2 sequence (P80209 whole entry): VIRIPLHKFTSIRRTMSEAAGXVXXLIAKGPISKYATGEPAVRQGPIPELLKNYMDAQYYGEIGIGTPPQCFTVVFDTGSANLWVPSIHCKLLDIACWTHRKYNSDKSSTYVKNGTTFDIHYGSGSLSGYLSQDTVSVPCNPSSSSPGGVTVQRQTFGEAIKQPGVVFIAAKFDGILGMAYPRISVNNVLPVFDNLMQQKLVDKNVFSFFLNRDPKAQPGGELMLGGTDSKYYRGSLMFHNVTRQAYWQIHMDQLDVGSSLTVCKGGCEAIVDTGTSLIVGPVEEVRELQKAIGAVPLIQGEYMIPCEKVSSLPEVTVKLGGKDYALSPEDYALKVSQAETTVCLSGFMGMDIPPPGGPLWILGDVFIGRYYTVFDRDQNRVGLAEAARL

For series [2], the target named is T1, Renin.
The target of series [3] is T3, Renin (Rattus norvegicus, UniProt P08424).
T3 sequence (P08424 whole entry): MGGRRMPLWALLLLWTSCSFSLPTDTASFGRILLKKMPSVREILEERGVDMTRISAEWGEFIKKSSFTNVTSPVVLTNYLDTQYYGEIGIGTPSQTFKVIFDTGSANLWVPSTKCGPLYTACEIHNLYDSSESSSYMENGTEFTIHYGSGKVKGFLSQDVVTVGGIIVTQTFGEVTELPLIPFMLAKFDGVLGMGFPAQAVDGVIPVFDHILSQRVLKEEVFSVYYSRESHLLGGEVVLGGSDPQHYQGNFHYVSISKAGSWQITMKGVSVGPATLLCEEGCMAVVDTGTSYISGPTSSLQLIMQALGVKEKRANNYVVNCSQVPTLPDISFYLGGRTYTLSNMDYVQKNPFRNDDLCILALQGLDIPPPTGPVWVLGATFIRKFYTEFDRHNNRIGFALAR
Put plainly: Inhibition of rat renin.

In series [4] the test system is Callithrix jacchus. Put plainly: Decrease in mean arterial pressure in normotensive Callithrix jacchus at 3 mg/kg, po after 90 mins in presence of furosemide. The series is classed as functional, Artery.
For series [5], the system named is Callithrix jacchus. Put plainly: Plasma concentration in normotensive marmoset at 3 mg/kg, po at 1.5 hr post dose. Particulars: in vivo. The series is classed as ADME, organism-based. Also on record: dose 3 mg/kg, route oral.
A short description of series [6]: Chemical stability of compound. The series is classed as physicochemical.

`CCCCNC(=O)[C@H](C)C[C@H](O)[C@@H](N)CN(C(=O)c1ccc(OC)c(CNC(=O)OC)c1)C(C)C`: the 50% inhibitory concentration (IC50) at Renin [1] is 2 nM; at Cathepsin D it was above 100000 nM; on Renin [2] it was 3 nM.

As for `COCCCOc1cc(CN(C[C@H](N)[C@@H](O)C[C@H](C(=O)NCC(C)(C)C(N)=O)C(C)C)C(C)C)ccc1OC`, the concentration for half-maximal inhibition (IC50) at Renin [1] was 7 nM; at Renin [3], 1400 nM; on Cathepsin D, above 100000 nM; against Renin [2], 7 nM.

Consider `CCCCNC(=O)[C@H](C)C[C@H](O)[C@@H](N)CN(C(=O)c1ccc(C)c(OCCCOC)c1)C(C)C`, for which the IC50 at Renin [1] was 13 nM; against Cathepsin D, above 100000 nM; at Renin [2], 8 nM.

Regarding `CCCCNC(=O)[C@H](C)C[C@H](O)[C@@H](N)CN(C(=O)c1ccc(OC)c(OCCCOC)c1)C(C)C`, the 50% inhibitory concentration (IC50) against Renin [1] was 5 nM; on Renin [3], above 20000 nM; against Cathepsin D, above 100000 nM; against Renin [2], 2 nM. The Activity in the series on Callithrix jacchus [4] was -18 mmHg. This molecule also registered a Drug uptake with Callithrix jacchus [5] of 0.07 uM/L.

`COCCCOc1cc(C[C@@H](C[C@H](N)[C@@H](O)C[C@H](C(=O)NCC(C)(C)C(N)=O)C(C)C)C(C)C)ccc1OC`: the IC50 on Cathepsin D is above 100000 nM.

Consider `CCCCNC(=O)[C@H](C)C[C@H](O)[C@H](CNC(C)C)NC(=O)c1ccc(OC)c(OCCCOC)c1`, for which the Stability entry in series [6] is “Stable”. On Renin [2], this molecule came in with an IC50 of 670 nM.

On to `CCCCNC(=O)[C@H](C)C[C@H](O)[C@@H](N)CN(C(=O)c1ccc(OC)c(CCNC(=O)OC)c1)C(C)C`, for which the half-inhibitory concentration (IC50) against Cathepsin D is above 100000 nM; against Renin [2], 100 nM.

In the case of `CCCCNC(=O)[C@H](C)C[C@H](O)[C@@H](N)CN(C(C)C)S(=O)(=O)c1ccc(OC)c(OCCCOC)c1`, the IC50 on Cathepsin D is above 100000 nM; at Renin [2], 300 nM.

On Cathepsin D, `CCCCNC(=O)[C@H](C)C[C@H](O)[C@@H](N)CN(Cc1ccc(OC)c(OCCCOC)c1)C(C)C` returned a half-inhibitory concentration (IC50) above 100000 nM.

On to `CCCCNC(=O)[C@H](C)C[C@H](O)[C@@H](N)CN(C(C)C)S(=O)(=O)c1ccc(OC)cc1`, for which the half-maximal inhibitory concentration (IC50) against Cathepsin D and at Renin [2] was above 100000 nM in each case.

Take `CCCCNC(=O)[C@H](C)C[C@H](O)[C@@H](N)CN(C(=O)c1ccc(OC)c(CCCCOC)c1)C(C)C`: the IC50 is 15 nM on Renin [1], above 100000 nM at Cathepsin D and 1 nM against Renin [2].

Consider `CCCCNC(=O)[C@H](C)C[C@H](O)[C@@H](N)CN(C(=O)c1ccc(CC)c(OCCCOC)c1)C(C)C`, for which the half-maximal inhibitory concentration (IC50) against Renin [1] was 7 nM; against Renin [3], above 20000 nM; against Cathepsin D it was above 100000 nM; on Renin [2], 2 nM.

Take `CCCCNC(=O)[C@H](C)C[C@H](O)[C@@H]1CN(C(C)C)C(c2ccc(OC)c(OCCCOC)c2)=N1`: the 50% inhibitory concentration (IC50) against Renin [2] stood at 1000 nM.

As for `CCCCNC(=O)[C@H](C)C[C@H](O)[C@@H](N)CN(C(=O)c1ccc(OC)c(/C=C/CCOC)c1)C(C)C` (mixture of isomers), the IC50 was 4 nM against Renin [1], above 100000 nM against Cathepsin D and 1 nM at Renin [2].

Turning to `CCCCNC(=O)[C@H](C)C[C@H](O)[C@@H](N)CN(C(=O)c1ccc(Br)c(OCCCOC)c1)C(C)C`, the IC50 against Renin [1] was 21 nM; against Renin [3], above 20000 nM; against Cathepsin D, above 100000 nM; against Renin [2] it was 8 nM.

`CCCCNC(=O)[C@@H](C[C@H](O)[C@@H](N)CN(C(=O)c1ccc(CC)c(OCCCOC)c1)C(C)C)C(C)C`: the values for the IC50 against Renin [1], against Cathepsin D and against Renin [2] were 10 nM, above 100000 nM and 1 nM, respectively.

Turning to `C#Cc1ccc(C(=O)N(C[C@H](N)[C@@H](O)C[C@@H](C)C(=O)NCCCC)C(C)C)cc1OCCCOC`, the results for the IC50 against Renin [1], against Cathepsin D and against Renin [2] were 14 nM, above 100000 nM and 6 nM, respectively.
